Values quoted from earlier work in paper PMC6262012, “IMB-T130 targets 3-dehydroquinate synthase and inhibits Mycobacterium tuberculosis” (Scientific Reports, 2018).

Tested on: M. tuberculosis
Details: drug-resistant strains, compared with RFP and INH; cited from earlier work

O=C(Nc1nc(-c2ccccn2)cs1)c1ccc(Cl)s1 [IMB-T130, 5-chloro-N-[4-(pyridin-2-yl)-1,3-thiazol-2-yl] thiophene-2-carboxamide]
MIC against drug-resistant strains: substantially lower MIC
